Reference: patent US20250144067A1, “PERSONALIZED STARVATION THERAPY FOR CANCER” (Faeth Therapeutics, Inc., priority 2021, published 2025)
Where a name gives a salt, the structure may show the parent alone. Read-outs that look alike come from different tables or passages of the source.

Assays:
[1] = system: NCI-H292 lung cancer cells; test: FDA drug screening, complete media vs cholesterol-free media without statin (TABLE 1); format: cell-based, human
[2] = system: NCI-H292 lung cancer cells; test: FDA drug screening, complete media vs cholesterol-free media with simvastatin (TABLE 2); format: cell-based, human
[3] = Complete minus Cholesterol-free, greater than 0 enhanced anti-cancer activity, about 0 neutral, below 0 antagonist
[4] = NCI-H292 cells, FDA drug library screen, cholesterol-free media without statin
[5] = NCI-H292 cells, FDA drug library screen, complete media
[6] = NCI-H292 cells, cholesterol-free media with simvastatin 0.04 μM, cell growth value in FDA drug screen
[7] = NCI-H292 cells, complete media, cell growth value in FDA drug screen
[8] = complete media minus cholesterol-free media + simvastatin, >0 enhanced anti-cancer activity, about 0 neutral, <0 antagonist
[9] = NCI-H292 cells, cholesterol-free media without statin
[10] = complete vs cholesterol-free media, greater than 0 enhanced anti-cancer activity, about 0 neutral, below 0 antagonists
[11] = NCI-H292 cells, FDA drug library screen, cholesterol-free media with simvastatin 0.04 μM
[12] = complete media vs cholesterol-free media + simvastatin (0.04 μM), >0 enhanced anti-cancer activity, about 0 neutral, <0 antagonist
[13] = Complete minus Cholesterol-free, >0 enhanced anti-cancer activity, about 0 neutral, <0 antagonist
[14] = NCI-H292 cells, FDA library drug in cholesterol-free media with simvastatin 0.04 μM
[15] = NCI-H292 cells, FDA library drug in complete media
[16] = NCI-H292 cells, drug in cholesterol-free media with simvastatin 0.04 μM
[17] = NCI-H292 cells, drug in complete media
[18] = Complete minus Cholesterol-free, […]
[19] = NCI-H292 cells, cholesterol-free media without statin, FDA drug library screen
[20] = NCI-H292 cells, complete media, FDA drug library screen
[21] = NCI-H292 cells, cholesterol-free media with simvastatin 0.04 μM, FDA drug library screen (TABLE 2)
[22] = NCI-H292 cells, complete media, FDA drug library screen (TABLE 2)
[23] = complete media minus cholesterol-free media + simvastatin (0.04 μM), >0 enhanced anti-cancer activity, about 0 neutral, <0 antagonist

CC12CC3CC(C)(C1)CC(N)(C3)C2 [Memantine (hydrochloride)]
Difference [1, 3]: −0.14 | Cholesterol-free [1, 4]: 0.8008 | Complete [1, 5]: 0.656 | Cholesterol-free media + simvastatin (0.04 μM) [2, 6]: 0.8007 | Complete Media [2, 7]: 0.853 | Difference [2, 8]: 0.05

Tosufloxacin (tosylate hydrate)
Cholesterol-free [1, 9]: 1.21 | Complete ([1]; NCI-H292 cells, complete media): 0.8679 | Difference [1, 10]: −0.34 | Cholesterol-free media + simvastatin (0.04 μM) [2, 11]: 1.004 | Complete Media [2, 5]: 0.9272 | Difference [2, 12]: −0.08

CS(=O)(=O)Nc1ccc([N+](=O)[O-])cc1Oc1ccccc1 [Nimesulide]
Difference [1, 13]: −0.26 | Cholesterol-free [1, 9]: 1.157 | Complete ([1]; NCI-H292 cells, complete media): 0.8983 | Cholesterol-free media + simvastatin (0.04 μM) [2, 11]: 0.9827 | Difference [2, 8]: 0.17

C[C@@H](O)[C@H]1C(=O)N2C(C(=O)[O-])=C(SC3Cn4cnc[n+]4C3)[C@H](C)[C@H]12 (stereo partly shown) [Biapenem]
Difference [1, 3]: −0.11 | Cholesterol-free [1, 4]: 0.9795 | Complete [1, 5]: 0.8733 | Cholesterol-free media + simvastatin (0.04 μM) [2, 11]: 1.249 | Complete Media [2, 5]: 1.117 | Difference [2, 12]: −0.13

COc1cc2nccc(Oc3ccc(NC(=O)C4(C(=O)Nc5ccc(F)cc5)CC4)cc3)c2cc1OC [Cabozantinib (S-malate)]
Difference [1, 3]: −0.18 | Cholesterol-free [1, 4]: 1.011 | Complete [1, 5]: 0.8269 | Cholesterol-free media + simvastatin (0.04 μM) [2, 14]: 1.216 | Complete Media [2, 15]: 0.9255 | Difference [2, 12]: −0.29

CCCCNC(=O)NS(=O)(=O)c1ccc(C)cc1 [Tolbutamide]
Difference [1, 13]: −0.25 | Cholesterol-free [1, 9]: 1.099 | Complete ([1]; NCI-H292 cells, complete media): 0.8474 | Cholesterol-free media + simvastatin (0.04 μM) [2, 16]: 1.123 | Complete Media [2, 17]: 0.9256 | Difference [2, 12]: −0.20

CC[C@H]1CN2CCc3cc(OC)c(OC)cc3[C@@H]2C[C@@H]1C[C@H]1NCCc2cc(OC)c(OC)cc21 [Emetine (dihydrochloride hydrate)]
Cholesterol-free [1]: 0.02305 | Complete [1]: 0.04288 | Difference [1]: 0.02 | Cholesterol-free media + simvastatin (0.04 μM) [2]: 0.05048 | Complete Media [2]: 0.03214 | Difference [2]: −0.02

C[S+](C)CCC(N)C(=O)O.[Cl-] (racemic) [DL-Methionine methylsulfonium (chloride)]
Difference [1, 3]: −0.16 | Cholesterol-free [1, 4]: 1.102 | Complete [1, 5]: 0.9454 | Cholesterol-free media + simvastatin (0.04 μM) [2, 14]: 1.182 | Complete Media [2, 15]: 0.8884 | Difference [2, 12]: −0.29

C[N+]1(C)[C@@H]2CC[C@H]1C[C@@H](OC(=O)C(O)c1ccccc1)C2.[Br-] (stereo partly shown) [Homatropine (methylbromide)]
Difference [1, 18]: −0.22 | Cholesterol-free [1, 9]: 1.269 | Complete ([1]; NCI-H292 cells, complete media): 1.05 | Cholesterol-free media + simvastatin (0.04 μM) [2, 14]: 1.302 | Complete Media [2, 15]: 0.9164 | Difference ([2]; complete media vs cholesterol-free media + simvastatin (0.04 μM), […]): −0.39

CNCCCN1c2ccccc2CCc2ccccc21 [Desipramine hydrochloride]
Difference [1, 13]: −0.04 | Cholesterol-free [1, 19]: 1.05 | Complete [1, 20]: 1.006 | Cholesterol-free media + simvastatin (0.04 μM) [2, 14]: 2.126 | Complete Media [2, 15]: 1.494 | Difference [2, 12]: −0.63

CCCSc1ccc2nc(NC(=O)OC)[nH]c2c1 [Albendazole]
Cholesterol-free [1]: 0.9001 | Complete [1]: 0.9862 | Difference [1]: 0.09 | Cholesterol-free media + simvastatin (0.04 μM) [2]: 1.236 | Complete Media [2]: 0.9882 | Difference [2]: −0.25

COc1ccc2cc1Oc1ccc(cc1)C[C@H]1c3cc(c(OC)cc3CCN1C)Oc1c(OC)c(OC)cc3c1[C@H](C2)N(C)CC3 [Tetrandrine]
Cholesterol-free [1, 19]: 0.9522 | Complete [1, 20]: 1.143 | Difference ([1]; complete vs cholesterol-free media, >0 enhanced anti-cancer activity, about 0 neutral, <0 antagonist): 0.19 | Cholesterol-free media + simvastatin (0.04 μM) [2, 16]: 1.133 | Complete Media [2, 17]: 0.9661 | Difference [2, 12]: −0.17

COc1cc(Nc2ncc(F)c(Nc3ccc4c(n3)N(COP(=O)(O)O)C(=O)C(C)(C)O4)n2)cc(OC)c1OC [Fostamatinib (disodium hexahydrate)]
Difference [1, 13]: 0.00 | Cholesterol-free [1, 19]: 0.5454 | Complete [1, 20]: 0.5466 | Cholesterol-free media + simvastatin (0.04 μM) [2, 11]: 0.9752 | Complete Media [2, 5]: 0.8745 | Difference [2, 12]: −0.10

CCO/N=C(\C(=O)N[C@@H]1C(=O)N2C(C(=O)[O-])=C(Sc3nc(-c4cc[n+](C)cc4)cs3)CS[C@H]12)c1nsc(NP(=O)(O)O)n1 [Ceftaroline fosamil]
Difference ([1]; Complete minus Cholesterol-free, greater than 0 enhanced anti-cancer activity, about 0 neutral, below 0 antagonists): −0.71 | Cholesterol-free ([1]; NCI-H292 cells in cholesterol-free media without statin): 1.53 | Complete ([1]; NCI-H292 cells in complete media): 0.8244 | Cholesterol-free media + simvastatin (0.04 μM) [2, 11]: 1.027 | Complete Media [2, 5]: 0.9313 | Difference [2, 12]: −0.10

CN1CCN(CC/C=C2/c3ccccc3Sc3ccc(S(=O)(=O)N(C)C)cc32)CC1 [(Z)-Thiothixene]
Difference [1, 13]: −0.29 | Cholesterol-free [1, 9]: 1.344 | Complete ([1]; NCI-H292 cells, complete media): 1.05 | Cholesterol-free media + simvastatin (0.04 μM) [2, 6]: 0.9883 | Complete Media [2, 7]: 1.062 | Difference [2, 8]: 0.07

C[C@]12CCC(=O)C=C1C=C[C@@H]1[C@@H]2CC[C@@]2(C)[C@H]1CC[C@@]21CCC(=O)O1 [Canrenone]
Difference [1, 13]: −0.20 | Cholesterol-free [1, 9]: 1.047 | Complete ([1]; NCI-H292 cells, complete media): 0.8458 | Cholesterol-free media + simvastatin (0.04 μM) [2, 11]: 1.098 | Complete Media [2, 5]: 1.452 | Difference [2, 8]: 0.35

C[N+](C)(C)CCOP(=O)([O-])OP(=O)([O-])OC[C@H]1O[C@@H](n2ccc(N)nc2=O)[C@H](O)[C@@H]1O.[Na+] [Citicoline (sodium)]
Cholesterol-free [1, 9]: 1.151 | Complete ([1]; NCI-H292 cells, complete media): 0.8125 | Difference [1, 10]: −0.34 | Cholesterol-free media + simvastatin (0.04 μM) [2, 21]: 1.337 | Complete Media [2, 22]: 1.292 | Difference [2, 23]: −0.04

CNCCCC12CCC(c3ccccc31)c1ccccc12 [Maprotiline (hydrochloride)]
Cholesterol-free [1, 9]: 1.347 | Complete ([1]; NCI-H292 cells, complete media): 0.9995 | Difference [1, 10]: −0.35 | Cholesterol-free media + simvastatin (0.04 μM) [2, 14]: 1.215 | Complete Media [2, 15]: 0.924 | Difference [2, 12]: −0.29

COC(=O)[C@H]1[C@H]2C[C@@H]3c4[nH]c5ccccc5c4CCN3C[C@H]2C[C@@H](OC(=O)c2cc(OC)c(OC)c(OC)c2)[C@@H]1OC [Deserpidine]
Difference [1, 13]: −0.30 | Cholesterol-free [1, 9]: 0.9648 | Complete ([1]; NCI-H292 cells, complete media): 0.6619 | Cholesterol-free media + simvastatin (0.04 μM) [2, 16]: 1.05 | Complete Media [2, 17]: 0.8141 | Difference [2, 12]: −0.24

CC[C@@H]1/C=C(\C)C[C@H](C)C[C@H](OC)[C@H]2O[C@@](O)(C(=O)C(=O)N3CCCC[C@H]3C(=O)O[C@H](/C(C)=C/[C@@H]3CC[C@H](Cl)[C@H](OC)C3)[C@H](C)[C@@H](O)CC1=O)[C@H](C)C[C@@H]2OC [Pimecrolimus]
Difference [1, 13]: −0.26 | Cholesterol-free [1, 9]: 1.022 | Complete ([1]; NCI-H292 cells, complete media): 0.7576 | Cholesterol-free media + simvastatin (0.04 μM) [2, 16]: 1.1 | Complete Media [2, 17]: 0.8909 | Difference [2, 12]: −0.21

CCCCc1nc(Cl)c(CO)n1Cc1ccc(-c2ccccc2-c2nn[nH]n2)cc1 [Losartan]
Difference [1, 13]: −0.28 | Cholesterol-free [1, 9]: 1.549 | Complete ([1]; NCI-H292 cells, complete media): 1.271 | Cholesterol-free media + simvastatin (0.04 μM) [2, 14]: 1.37 | Complete Media [2, 15]: 0.8741 | Difference [2, 12]: −0.50

CCO.C[C@H]1c2cccc(O)c2C(O)=C2C(=O)[C@]3(O)C(O)=C(C(N)=O)C(=O)[C@@H](N(C)C)[C@@H]3[C@@H](O)[C@@H]21.C[C@H]1c2cccc(O)c2C(O)=C2C(=O)[C@]3(O)C(O)=C(C(N)=O)C(=O)[C@@H](N(C)C)[C@@H]3[C@@H](O)[C@@H]21.Cl.Cl.O [Doxycycline (hyclate)]
Difference [1, 3]: −0.15 | Cholesterol-free [1, 4]: 1.09 | Complete [1, 5]: 0.9355 | Cholesterol-free media + simvastatin (0.04 μM) [2, 16]: 1.074 | Complete Media [2, 17]: 0.8852 | Difference [2, 12]: −0.19

CN1c2c(nc(N)[nH]c2=O)NC[C@@H]1CNc1ccc(C(=O)N[C@@H](CCC(=O)O)C(=O)O)cc1 [Levomefolic acid]
Cholesterol-free [1, 9]: 1.808 | Complete ([1]; NCI-H292 cells, complete media): 1.368 | Difference [1, 10]: −0.44 | Cholesterol-free media + simvastatin (0.04 μM) [2, 21]: 0.9044 | Complete Media [2, 22]: 0.8568 | Difference [2, 23]: −0.05

Cc1cnc(C(=O)N[C@H]2CCCCC/C=C\[C@@H]3C[C@@]3(C(=O)NS(=O)(=O)C3CC3)NC(=O)[C@@H]3C[C@@H](Oc4nc5ccccc5c5ccccc45)CN3C2=O)cn1 [Paritaprevir]
Difference [1, 13]: −0.03 | Cholesterol-free [1, 19]: 0.9471 | Complete [1, 20]: 0.9198 | Cholesterol-free media + simvastatin (0.04 μM) [2, 21]: 1.147 | Complete Media [2, 22]: 1.102 | Difference [2, 23]: −0.05

Vitamin B12
Difference [1, 18]: −0.19 | Complete ([1]; NCI-H292 cells, complete media): 0.9199 | Cholesterol-free media + simvastatin (0.04 μM) ([2]; NCI-H292 cells, cholesterol-free media with simvastatin 0.04 μM, […]): 1.198 | Complete Media ([2]; NCI-H292 cells, complete media, […]): 1.289 | Difference ([2]; complete media minus cholesterol-free media + simvastatin, […]): 0.09

CC(C(=O)O)c1ccc(C(=O)c2cccs2)cc1 (stereo not shown) [Suprofen]
Difference [1, 13]: −0.28 | Cholesterol-free [1, 9]: 1.108 | Complete ([1]; NCI-H292 cells, complete media): 0.8283 | Cholesterol-free media + simvastatin (0.04 μM) [2, 6]: 0.9436 | Complete Media [2, 7]: 0.9637 | Difference [2, 8]: 0.02
